From patent US7285555B2, “6-aryl-7-halo-imidazo[1,2-a]pyrimidines as anticancer agents” (Wyeth Holdings Corporation, priority 2003, dated 2007)

Columns and labels:
[1] = system: polymerized tubulin (microtubules); test: Competitive binding test procedure, [3H]paclitaxel; parameters: species or system bovine; settings: competitor 20 μM, [3H]paclitaxel 2.1 μM
Description: (§1) Medium is RPMI-1640 with L-glutamine, supplemented with 10% heat-inactivated fetal calf serum, 100 units/mL penicillin, and 100 μg/mL streptomycin (Gibco, Grand Island, N.Y.). Microtubule-associated protein (MAP)-rich tubulin, containing about 70% tubulin and 30% MAPs (#ML113), and highly purified tubulin (>99% pure, #TL238), both from bovine brain, are obtained from Cytoskeleton, Inc., Denver, Colo. PEM buffer (80 mM piperazine-N,N′-bis[2-ethanesulfonic acid], pH 6.9, 1 mM ethylene glycol-bis(β-aminoethyl ether)-N,N,N′,N′-tetraacetic acid, 1 mM magnesium chloride) and guanosine 5′-triphosphate (GTP) are also obtained from Cytoskeleton. [^3H]paclitaxel, specific activity 14.7 Ci/mmol, is purchased from Moravek Biochemicals (Brea, Calif.). [^3H]vinblastine, specific activity 9.60 Ci/mmol and MicroSpin G-50 columns are obtained from Amersham Biosciences (Piscataway, N.J.). […] Other reagents are obtained from Sigma (St. Louis, Mo.).
(§2) The binding of examples of this invention to highly purified tubulin is studied by competitive inhibition methods. […] To study possible competition at the taxane site, on the other hand, polymerized tubulin (microtubules) is used because paclitaxel binds preferentially to microtubules.
For competition with [^3H]paclitaxel, highly purified tubulin is dissolved in PEM buffer containing 0.75 M glutamate and 25 μM dideoxy-GTP; final protein concentration is 0.25 to 0.35 mg/mL (2.5 to 3.5 μM). These conditions foster the rapid formation of short, stable microtubule polymers (Hamel, E., del Campo, A. A., and Lin, C. M. Stability of tubulin polymers formed with dideoxyguanosine nucleotides in the presence and absence of microtubule-associated proteins. J. Biol. Chem., 259: 2501-2508, 1984). […] The reactions are then centrifuged at top speed in an Eppendorf 5415C microfuge for 20 min at room temperature in order to pellet the microtubule protein. Triplicate aliquots of each supernatant are mixed with scintillation fluid and counted in a liquid scintillation spectrometer. From the amount of radioactivity in the supernatants and the measured total starting radioactivity, the amount of [^3H]paclitaxel bound to pelleted microtubule protein is calculated. The ability of each competitor to inhibit radioligand binding to pelleted protein is expressed as a percent of controls without any competitor.

[2] = system: highly purified tubulin (tubulin heterodimer); test: Competitive binding test procedure, [3H]colchicine; parameters: species or system bovine; settings: competitor 100 μM, [3H]colchicine 50 nM
Description: as §1, §2
(§3) Highly purified tubulin is dissolved in PEM buffer without GTP and used at a final concentration of 1.0 to 1.3 mg/ml (10 to 13 μM). […] These solutions are incubated at 240 for 1 hr and then applied to MicroSpin G-50 columns which are centrifuged for 2 min at 3000 rpm in an Eppendorf 5415C microfuge. An aliquot of each column effluent (containing tubulin and bound radioligand) is mixed with scintillation fluid and counted in a liquid scintillation spectrometer. […] Quadruplicates are averaged, and the ability of the competitor to inhibit the binding of the radioligand is expressed as a percentage of control binding in the absence of any competitor.

MAP-rich tubulin = test: Tubulin polymerization test procedure with MAP-rich tubulin; format: biochemical, bovine; settings: MAP-rich tubulin with 1 mM GTP, compound 0.3 μM, at 20 min
Description: as §1
MAP-rich tubulin is dissolved in ice-cold PEM buffer containing 1 mM GTP (GPEM buffer) at a concentration of 1.3 mg/mL. The solution is centrifuged at top speed in an Eppendorf model 5415C microcentrifuge (Brinkmann Instruments, Westbury, N.Y.) for 10 min at 40 immediately before use. The tubulin solution is added to wells of a ½-area 96-well plate (Costar No. 3696, Corning, Inc., Corning, N.Y.) already containing the compounds of interest. Each compound is tested in duplicate at a final concentration of 0.3 μM in a volume of 110 μL per well. The final DMSO concentration in all wells is 0.3%. Control reactions, which receive compound solvent only, are done in quadruplicate. The plate is put in a SpectraMax Plus plate reader (Molecular Devices Corp. Sunnyvale, Calif.) thermostated at 240 and the absorbance of each well at 340 nm, a measure of the appearance of turbidity due to tubulin polymer formation, is determined every minute for 60 minutes. The absorbance at time 0 for each well is subtracted from each of the subsequent absorbance readings for that well, and then the duplicates are averaged.
In this assay, control reactions with MAP-rich tubulin show an S-shaped absorbance profile characterized by three phases: first, a lag phase during which no change in absorbance occurs; second, a polymerization phase in which absorbance increases; and third, a plateau phase in which absorbance has reached a maximum and little or no further change occurs. Polymerization enhancers such as paclitaxel and docetaxel shorten or eliminate the lag phase, increase the rate of the polymerization phase, and often increase the height of the plateau. […] This has been expressed quantitatively in Table 6 by dividing the mean A340 of each sample at 20 min by the mean A340 of the control at 20 min to give a fold enhancement over control. […]

[3] = system: highly purified tubulin (tubulin heterodimer); test: Competitive binding test procedure, [3H]vinblastine; parameters: species or system bovine; settings: competitor 100 μM, [3H]vinblastine 100 nM
Description: as §1, §2, §3

pure tubulin = test: Tubulin polymerization test procedure with pure tubulin; format: biochemical, bovine; settings: pure tubulin without added GTP
Description: as §1
The procedure with pure tubulin is similar except for the following changes. […] The supernatant after centrifugation is dispensed to a ½-area 96-well plate already containing compounds. Each compound is tested in duplicate at a final concentration of 24.3 μM. The plate reader μs thermostated at 35°.

SMILES: CC[C@]1(O)C[C@H]2CN(CCc3c([nH]c4ccccc34)[C@@](C(=O)OC)(c3cc4c(cc3OC)N(C=O)[C@H]3[C@@](O)(C(=O)OC)[C@H](OC(C)=O)[C@]5(CC)C=CCN6CC[C@]43[C@@H]65)C2)C1 [Vincristine, reference compound]
- [3H]Paclitaxel binding, Mean, percent of binding to control without competitor [1]: 22%
- [3H]Colchicine binding, Mean, percent of binding to control without competitor [2]: 99%
- A340 Compound / A340 Control (fold enhancement over control) (MAP-rich tubulin): 0.5
- [3H]Vinblastine binding, Mean, percent of binding to control without competitor [3]: 5%
- polymerization of pure tubulin without GTP (in words) (pure tubulin): no activity
